This note sets out measurements from US12371428B2 (Exelixis, Inc., priority 2019, dated 2025).

SMILES strings stand for the structures. Where two headings read alike, the source gives them in different places.

For orientation: IC50 means the point on the concentration scale where inhibition reaches its midpoint.

Assay type in all cases: cell-based
In assay [1] the target is KDR (phospho-KDR, VEGF165-stimulated HUVEC cells) (Homo sapiens (Human), UniProt P35968). As to the kind of experiment: KDR autophosphorylation ELISA in HUVEC cells (Example G). As to conditions: cellular activity. The method, boiled down:
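First, endothelial cells were cultured a day, then kept without serum for another day. Next came 1 h with serially diluted compound, a brief 5 min VEGF165 stimulus (100 ng/mL), rapid lysis, and ELISA detection of receptor phosphorylation relative to stimulated and non-stimulated controls.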

Assay [2] has as its target AXL (phospho-AXL, Gas6-stimulated A-172 glioblastoma cells) (Homo sapiens (Human), UniProt P30530). Briefly: AXL autophosphorylation ELISA in A-172 cells (Example E). As to conditions: cellular activity, read-out: Axl IC50. An outline of the steps:
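Phospho-AXL was measured by ELISA in lysates of Gas6-stimulated A-172 cells, starved 24 h in serum-free medium and exposed 1 h to an 8-point compound dilution at 0.3% DMSO.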
(ELISA stands for enzyme-linked immunosorbent assay.)

Assay [3] deals with Mer (phospho-Mer, MERTK-transfected 293A cells) (Homo sapiens (Human), UniProt Q12866). Briefly: Mer autophosphorylation ELISA in transient transfected 293A cells (Example H). As to conditions: cellular activity. The method, boiled down:
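IC50 from phospho-Mer ELISA of MERTK-transfected 293A cell lysates after 1 h treatment with serially diluted compound in serum-free medium.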

Assay [4] has as its target Met (phospho-Met, HGF-stimulated PC-3 prostate cancer cells) (Homo sapiens (Human), UniProt P08581). As to the kind of experiment: Met autophosphorylation ELISA in PC-3 cells (Example F). As to conditions: cellular activity, read-out: c-Met IC50. The method, boiled down:
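Sandwich ELISA for phospho-Met (panTyr) in PC-3 lysates. Cells starved 3 h serum-free, compound 1 h (8-pt curve, 0.3% DMSO), HGF 100 ng/mL 10 min. 100% = HGF + DMSO; 0% = HGF + reference inhibitor. IC50 by 4-parameter fit.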

Where [5] appears, read: KDR autophosphorylation ELISA in HUVEC cells.
The mark [6] stands for this setting: AXL autophosphorylation ELISA in A-172 cells.
Where [7] appears, read: Mer autophosphorylation ELISA in transient transfected 293A cells.
Where [8] appears, read: Met autophosphorylation ELISA in PC-3 cells.

Met (phospho-Met, HGF-stimulated PC-3 prostate cancer cells), sequence (P08581 25-1390): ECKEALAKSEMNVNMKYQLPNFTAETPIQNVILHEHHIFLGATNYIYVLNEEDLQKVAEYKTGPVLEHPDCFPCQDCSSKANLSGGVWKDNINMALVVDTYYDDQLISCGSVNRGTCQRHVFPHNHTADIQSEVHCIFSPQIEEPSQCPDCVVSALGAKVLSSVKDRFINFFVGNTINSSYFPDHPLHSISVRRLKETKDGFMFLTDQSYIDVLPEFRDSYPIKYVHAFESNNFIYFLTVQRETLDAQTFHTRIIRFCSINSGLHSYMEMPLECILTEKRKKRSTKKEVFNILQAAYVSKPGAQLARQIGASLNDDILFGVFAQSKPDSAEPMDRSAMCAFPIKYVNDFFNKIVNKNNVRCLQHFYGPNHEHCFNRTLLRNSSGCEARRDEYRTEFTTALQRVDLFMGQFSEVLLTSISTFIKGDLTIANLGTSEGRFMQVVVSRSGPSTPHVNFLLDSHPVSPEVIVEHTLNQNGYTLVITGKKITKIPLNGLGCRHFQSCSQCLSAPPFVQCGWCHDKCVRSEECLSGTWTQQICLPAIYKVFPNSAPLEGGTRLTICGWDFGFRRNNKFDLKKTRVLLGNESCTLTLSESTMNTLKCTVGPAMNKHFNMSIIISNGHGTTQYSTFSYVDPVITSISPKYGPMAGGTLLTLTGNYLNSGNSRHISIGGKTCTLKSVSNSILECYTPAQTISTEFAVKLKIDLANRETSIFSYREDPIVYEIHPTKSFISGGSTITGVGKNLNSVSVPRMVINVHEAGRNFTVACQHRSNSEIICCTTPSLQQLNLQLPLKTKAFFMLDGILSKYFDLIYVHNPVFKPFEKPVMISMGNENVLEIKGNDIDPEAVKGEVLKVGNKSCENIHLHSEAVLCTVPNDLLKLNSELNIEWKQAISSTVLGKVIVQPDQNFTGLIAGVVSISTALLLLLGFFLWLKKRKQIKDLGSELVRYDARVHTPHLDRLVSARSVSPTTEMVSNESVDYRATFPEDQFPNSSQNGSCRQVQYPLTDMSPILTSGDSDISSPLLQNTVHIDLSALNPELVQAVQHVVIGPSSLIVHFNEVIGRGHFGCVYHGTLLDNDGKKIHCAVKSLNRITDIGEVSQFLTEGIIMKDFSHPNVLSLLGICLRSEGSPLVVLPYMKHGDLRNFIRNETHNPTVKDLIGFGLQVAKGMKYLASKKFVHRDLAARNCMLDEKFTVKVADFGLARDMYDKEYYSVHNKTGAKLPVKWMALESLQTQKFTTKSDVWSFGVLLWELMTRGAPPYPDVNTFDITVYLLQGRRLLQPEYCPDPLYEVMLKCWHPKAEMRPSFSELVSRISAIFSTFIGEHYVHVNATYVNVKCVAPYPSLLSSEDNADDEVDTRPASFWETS
KDR (phospho-KDR, VEGF165-stimulated HUVEC cells), sequence (P35968 20-1356): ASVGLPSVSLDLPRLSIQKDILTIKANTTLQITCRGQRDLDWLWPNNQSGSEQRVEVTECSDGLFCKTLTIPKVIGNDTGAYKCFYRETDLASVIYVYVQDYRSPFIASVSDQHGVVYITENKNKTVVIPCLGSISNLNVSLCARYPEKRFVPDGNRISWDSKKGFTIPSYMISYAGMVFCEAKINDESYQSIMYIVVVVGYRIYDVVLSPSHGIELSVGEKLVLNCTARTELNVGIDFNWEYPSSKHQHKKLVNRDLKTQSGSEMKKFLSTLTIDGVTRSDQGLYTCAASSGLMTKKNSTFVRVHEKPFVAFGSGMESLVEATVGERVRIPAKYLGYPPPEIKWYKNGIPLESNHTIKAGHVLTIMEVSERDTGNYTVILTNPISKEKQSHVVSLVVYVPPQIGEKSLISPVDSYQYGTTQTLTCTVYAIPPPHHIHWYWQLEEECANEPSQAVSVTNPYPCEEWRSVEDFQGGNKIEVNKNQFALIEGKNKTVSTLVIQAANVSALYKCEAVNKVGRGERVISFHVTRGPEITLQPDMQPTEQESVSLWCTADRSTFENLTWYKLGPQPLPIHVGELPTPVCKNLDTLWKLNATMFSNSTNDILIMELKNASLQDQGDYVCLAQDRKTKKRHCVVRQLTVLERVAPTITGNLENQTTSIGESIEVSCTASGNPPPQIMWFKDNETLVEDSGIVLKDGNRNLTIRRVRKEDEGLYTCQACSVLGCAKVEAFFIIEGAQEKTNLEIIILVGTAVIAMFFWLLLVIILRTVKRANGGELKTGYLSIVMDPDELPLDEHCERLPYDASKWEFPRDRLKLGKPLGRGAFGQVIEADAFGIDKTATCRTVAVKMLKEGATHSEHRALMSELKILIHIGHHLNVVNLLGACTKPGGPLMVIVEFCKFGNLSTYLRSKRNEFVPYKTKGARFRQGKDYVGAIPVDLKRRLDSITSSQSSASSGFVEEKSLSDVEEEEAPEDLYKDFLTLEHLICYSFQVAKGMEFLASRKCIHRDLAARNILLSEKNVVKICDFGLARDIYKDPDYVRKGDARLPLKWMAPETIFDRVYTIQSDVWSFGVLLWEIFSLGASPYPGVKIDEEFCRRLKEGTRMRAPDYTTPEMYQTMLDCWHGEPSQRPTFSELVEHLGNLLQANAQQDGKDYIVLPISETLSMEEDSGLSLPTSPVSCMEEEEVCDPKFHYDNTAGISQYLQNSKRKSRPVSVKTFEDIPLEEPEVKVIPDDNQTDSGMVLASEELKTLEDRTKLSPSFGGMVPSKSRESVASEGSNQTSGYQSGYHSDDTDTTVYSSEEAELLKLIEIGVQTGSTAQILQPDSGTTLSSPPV
AXL (phospho-AXL, Gas6-stimulated A-172 glioblastoma cells), sequence (P30530 26-894): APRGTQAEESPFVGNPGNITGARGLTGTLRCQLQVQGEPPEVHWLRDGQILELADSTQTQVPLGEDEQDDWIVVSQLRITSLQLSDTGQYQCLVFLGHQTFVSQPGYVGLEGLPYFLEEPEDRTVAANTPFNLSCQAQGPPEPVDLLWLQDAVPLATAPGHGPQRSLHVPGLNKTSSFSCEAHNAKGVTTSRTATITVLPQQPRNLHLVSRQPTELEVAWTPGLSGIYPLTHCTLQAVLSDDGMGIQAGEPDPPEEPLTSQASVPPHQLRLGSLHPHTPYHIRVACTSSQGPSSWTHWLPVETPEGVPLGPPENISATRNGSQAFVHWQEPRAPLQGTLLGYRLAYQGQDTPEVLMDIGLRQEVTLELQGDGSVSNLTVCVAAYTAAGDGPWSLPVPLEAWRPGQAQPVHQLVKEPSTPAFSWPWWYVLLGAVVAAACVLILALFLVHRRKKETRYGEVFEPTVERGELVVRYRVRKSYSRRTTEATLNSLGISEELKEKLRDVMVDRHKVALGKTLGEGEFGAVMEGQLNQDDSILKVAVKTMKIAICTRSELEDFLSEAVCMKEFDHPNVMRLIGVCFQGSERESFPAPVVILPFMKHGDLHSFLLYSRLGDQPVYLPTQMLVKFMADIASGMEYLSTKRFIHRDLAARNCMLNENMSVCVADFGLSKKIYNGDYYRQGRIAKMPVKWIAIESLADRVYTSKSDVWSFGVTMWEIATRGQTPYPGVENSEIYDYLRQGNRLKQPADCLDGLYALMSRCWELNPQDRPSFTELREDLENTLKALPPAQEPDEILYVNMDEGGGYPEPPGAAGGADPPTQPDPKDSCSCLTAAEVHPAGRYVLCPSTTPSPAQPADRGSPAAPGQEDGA
Mer (phospho-Mer, MERTK-transfected 293A cells), sequence (Q12866 21-999): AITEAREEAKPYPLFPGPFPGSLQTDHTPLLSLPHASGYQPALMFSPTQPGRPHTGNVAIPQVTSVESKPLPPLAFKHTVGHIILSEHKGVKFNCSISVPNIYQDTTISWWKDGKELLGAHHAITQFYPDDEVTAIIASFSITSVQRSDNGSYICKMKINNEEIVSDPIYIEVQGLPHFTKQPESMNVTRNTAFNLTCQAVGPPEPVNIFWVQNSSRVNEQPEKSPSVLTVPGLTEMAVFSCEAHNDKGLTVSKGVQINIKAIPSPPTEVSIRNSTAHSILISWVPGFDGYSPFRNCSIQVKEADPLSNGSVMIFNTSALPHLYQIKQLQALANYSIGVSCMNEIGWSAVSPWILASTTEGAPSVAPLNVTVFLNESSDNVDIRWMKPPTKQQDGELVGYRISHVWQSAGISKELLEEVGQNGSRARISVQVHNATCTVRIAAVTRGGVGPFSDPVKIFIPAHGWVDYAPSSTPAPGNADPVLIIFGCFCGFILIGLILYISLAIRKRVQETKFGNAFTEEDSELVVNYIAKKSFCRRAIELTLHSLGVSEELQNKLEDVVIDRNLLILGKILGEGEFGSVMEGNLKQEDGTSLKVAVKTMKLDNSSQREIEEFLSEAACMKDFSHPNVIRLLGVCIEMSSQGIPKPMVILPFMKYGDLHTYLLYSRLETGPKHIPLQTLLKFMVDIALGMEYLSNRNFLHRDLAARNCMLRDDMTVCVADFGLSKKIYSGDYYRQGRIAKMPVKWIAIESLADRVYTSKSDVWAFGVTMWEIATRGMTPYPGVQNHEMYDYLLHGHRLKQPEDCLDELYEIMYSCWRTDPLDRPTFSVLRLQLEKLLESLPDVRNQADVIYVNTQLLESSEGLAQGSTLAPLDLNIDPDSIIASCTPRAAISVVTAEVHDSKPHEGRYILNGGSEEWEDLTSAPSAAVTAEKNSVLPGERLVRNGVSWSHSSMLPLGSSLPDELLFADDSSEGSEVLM

In the case of `COc1cnc2c(Oc3ccc(NC(=O)c4c(CO)nc(C)c(-c5ccc(F)cc5)c4O)cc3F)ccnc2c1` [Compound 651, N-[3-fluoro-4-[(7-methoxy-1,5-naphthyridin-4-yl)oxy]phenyl]-5-(4-fluorophenyl)-4-hydroxy-2-(hydroxymethyl)-6-methylpyridine-3-carboxamide], the IC50 in assay [1] (setting [5]), in assay [2] (setting [6]), in assay [3] (setting [7]) and in assay [4] (setting [8]) was under 100 nM each time.
Consider `COCc1nc(C)c(Br)c(O)c1C(=O)Nc1ccc(Oc2ccnc3cc(OC)c(OC)nc23)c(F)c1` [Compound 535, 5-bromo-N-[4-[(6,7-dimethoxy-1,5-naphthyridin-4-yl)oxy]-3-fluorophenyl]-4-hydroxy-2-(methoxymethyl)-6-methylpyridine-3-carboxamide], for which the IC50 in assay [1] (setting [5]) is over 300 nM; in assay [2] (setting [6]), under 100 nM; in assay [3] (setting [7]), under 100 nM; in assay [4] (setting [8]), under 100 nM.
`COc1ccc(-c2c(C)ncc(C(=O)Nc3ccc(Oc4ccnc5cc(OC)cnc45)c(F)c3)c2O)c(F)c1` [Compound 700, N-[3-fluoro-4-[(7-methoxy-1,5-naphthyridin-4-yl)oxy]phenyl]-5-(2-fluoro-4-methoxyphenyl)-4-hydroxy-6-methylpyridine-3-carboxamide]: the IC50 was under 100 nM in assay [1] (setting [5]), over 300 nM in assay [2] (setting [6]), under 100 nM in assay [3] (setting [7]) and under 100 nM in assay [4] (setting [8]).
Take `CCc1c(C)c(C(=O)Nc2ccc(Oc3ccnc4cc(OC)c(OC)nc34)c(F)c2)c(=O)n(-c2ccc(F)cc2)c1C` [Compound 330, N-[4-[(6,7-dimethoxy-1,5-naphthyridin-4-yl)oxy]-3-fluorophenyl]-5-ethyl-1-(4-fluorophenyl)-4,6-dimethyl-2-oxopyridine-3-carboxamide]: the IC50 in assay [1] (setting [5]) was over 300 nM; in assay [2] (setting [6]), under 100 nM; in assay [3] (setting [7]) it was under 100 nM; in assay [4] (setting [8]), under 100 nM.
Consider `COCCOc1cc2nccc(Oc3ccc(NC(=O)c4c(C)nc(C)c(-c5ccc(F)cc5C)c4O)cc3)c2nc1OC` [Compound 725, 5-(4-fluoro-2-methylphenyl)-4-hydroxy-N-[4-[[6-methoxy-7-(2-methoxyethoxy)-1,5-naphthyridin-4-yl]oxy]phenyl]-2,6-dimethylpyridine-3-carboxamide], for which the half-maximal inhibitory concentration (IC50) in assay [1] (setting [5]), in assay [2] (setting [6]), in assay [3] (setting [7]) and in assay [4] (setting [8]) was under 100 nM each time.
Turning to `COc1cnc2c(Oc3c(F)cc(NC(=O)c4c(C)nc(C)c(-c5ccc(F)cc5C)c4O)cc3F)ccnc2c1` [Compound 767, N-[3,5-difluoro-4-[(7-methoxy-1,5-naphthyridin-4-yl)oxy]phenyl]-5-(4-fluoro-2-methylphenyl)-4-hydroxy-2,6-dimethylpyridine-3-carboxamide], the IC50 in assay [1] (setting [5]), in assay [2] (setting [6]), in assay [3] (setting [7]) and in assay [4] (setting [8]) was under 100 nM each time.
Consider `COc1cc2nccc(Oc3ccc(NC(=O)c4c(C)n(CCF)cc(-c5ccc(F)cc5)c4=O)cc3F)c2nc1OC` [Compound 666, N-[4-[(6,7-dimethoxy-1,5-naphthyridin-4-yl)oxy]-3-fluorophenyl]-1-(2-fluoroethyl)-5-(4-fluorophenyl)-2-methyl-4-oxopyridine-3-carboxamide], for which the IC50 in assay [1] (setting [5]) was 100 to 300 nM; in assay [2] (setting [6]), under 100 nM; in assay [3] (setting [7]) it was under 100 nM; in assay [4] (setting [8]), under 100 nM.
With `COc1cc2nccc(Oc3ccc(NC(=O)c4c(C)ncc(Br)c4O)cc3F)c2nc1OC` [Compound 490, 5-bromo-N-[4-[(6,7-dimethoxy-1,5-naphthyridin-4-yl)oxy]-3-fluorophenyl]-4-hydroxy-2-methylpyridine-3-carboxamide], the IC50 in assay [1] (setting [5]) was under 100 nM; in assay [2] (setting [6]), 100 to 300 nM; in assay [3] (setting [7]) it was under 100 nM; in assay [4] (setting [8]), under 100 nM.
For the compound `C=C(C)c1cnc2c(Oc3ccc(NC(=O)c4nnc(C)c(-c5ccc(F)cc5)c4OC)cc3F)ccnc2c1` [Compound 478, 5-(4-fluorophenyl)-N-[3-fluoro-4-[(7-prop-1-en-2-yl-1,5-naphthyridin-4-yl)oxy]phenyl]-4-methoxy-6-methylpyridazine-3-carboxamide], the IC50 in assay [1] (setting [5]), in assay [2] (setting [6]), in assay [3] (setting [7]) and in assay [4] (setting [8]) was under 100 nM throughout.
For `COc1cc2nccc(Oc3ccc(NC(=O)c4cn5c(c(-c6ccc(F)cc6)c4=O)OC(C)C5)cc3F)c2nc1OC` (stereo not drawn) [Compound 759, N-[4-[(6,7-dimethoxy-1,5-naphthyridin-4-yl)oxy]-3-fluorophenyl]-8-(4-fluorophenyl)-2-methyl-7-oxo-2,3-dihydro-[1,3]oxazolo[3,2-a]pyridine-6-carboxamide], the IC50 in assay [1] (setting [5]), in assay [2] (setting [6]), in assay [3] (setting [7]) and in assay [4] (setting [8]) was under 100 nM in each case.
Take `COc1cc2nccc(Oc3ccc(NC(=O)c4c(C)c(C(C)=O)c(C)n(-c5ccc(F)cc5)c4=O)cc3)c2nc1OC` [Compound 322, 5-Acetyl-N-[4-[(6,7-dimethoxy-1,5-naphthyridin-4-yl)oxy]phenyl]-1-(4-fluorophenyl)-4,6-dimethyl-2-oxopyridine-3-carboxamide]: the IC50 in assay [1] (setting [5]) is 100 to 300 nM; in assay [2] (setting [6]), under 100 nM; in assay [3] (setting [7]) it was under 100 nM; in assay [4] (setting [8]), under 100 nM.
On to `Cc1cnc(C(=O)Nc2ccc(Oc3ccnc4cnc(Cl)cc34)c(F)c2)c(=O)n1-c1ccc(F)cc1` [Compound 498, N-[4-[(6-chloro-1,7-naphthyridin-4-yl)oxy]-3-fluorophenyl]-4-(4-fluorophenyl)-5-methyl-3-oxopyrazine-2-carboxamide], for which the IC50 in assay [1] (setting [5]) is over 300 nM; in assay [2] (setting [6]), under 100 nM; in assay [3] (setting [7]) it was under 100 nM; in assay [4] (setting [8]), under 100 nM.
With `COc1cc2nccc(Oc3ccc(NC(=O)c4c5n(cc(-c6ccc(F)cc6)c4=O)CCOC5)cc3F)c2nc1OC` [Compound 808, N-[4-[(6,7-dimethoxy-1,5-naphthyridin-4-yl)oxy]-3-fluorophenyl]-7-(4-fluorophenyl)-8-oxo-3,4-dihydro-1H-pyrido[2,1-c][1,4]oxazine-9-carboxamide], the half-maximal inhibitory concentration (IC50) in assay [1] (HUVEC cells) was over 300 nM; in assay [2] (A-172 cells) it was under 100 nM; in assay [3] (transfected 293A cells) it was under 100 nM; in assay [4] (PC-3 cells) it was under 100 nM.
As to `COc1cc2nccc(Oc3ccc(NC(=O)c4cn(C)c(C)c(-c5ccc(F)cc5)c4=O)cc3C)c2nc1OC` [Compound 763, N-[4-[(6,7-dimethoxy-1,5-naphthyridin-4-yl)oxy]-3-methylphenyl]-5-(4-fluorophenyl)-1,6-dimethyl-4-oxopyridine-3-carboxamide], the IC50 in assay [1] (setting [5]), in assay [2] (setting [6]), in assay [3] (setting [7]) and in assay [4] (setting [8]) was under 100 nM in each case.
Regarding `COCc1cnn(-c2ccc(F)cc2)c(=O)c1C(=O)Nc1ccc(Oc2ccnc3cc(OC)c(OC)nc23)c(F)c1` [Compound 533, N-[4-[(6,7-dimethoxy-1,5-naphthyridin-4-yl)oxy]-3-fluorophenyl]-2-(4-fluorophenyl)-5-(methoxymethyl)-3-oxopyridazine-4-carboxamide], the IC50 in assay [1] (setting [5]), in assay [2] (setting [6]), in assay [3] (setting [7]) and in assay [4] (setting [8]) was under 100 nM in each case.
In the case of `COc1nc2c(Oc3ccc(NC(=O)c4c(C)nc(C)c(-c5ccc(F)cc5C)c4O)cc3F)ccnc2cc1C` [Compound 471, N-[3-fluoro-4-[(6-methoxy-7-methyl-1,5-naphthyridin-4-yl)oxy]phenyl]-5-(4-fluoro-2-methylphenyl)-4-hydroxy-2,6-dimethylpyridine-3-carboxamide], the IC50 in assay [1] (setting [5]), in assay [2] (setting [6]), in assay [3] (setting [7]) and in assay [4] (setting [8]) was under 100 nM throughout.
Consider `COc1cnc2c(Oc3ccc(NC(=O)c4cnc(C)c(-c5ccc(S(C)(=O)=O)cc5)c4O)cc3F)ccnc2c1` [Compound 697, N-[3-fluoro-4-[(7-methoxy-1,5-naphthyridin-4-yl)oxy]phenyl]-4-hydroxy-6-methyl-5-(4-methylsulfonylphenyl)pyridine-3-carboxamide], for which the IC50 in assay [1] (setting [5]) was over 300 nM; in assay [2] (setting [6]) it was over 300 nM; in assay [3] (setting [7]), under 100 nM; in assay [4] (setting [8]), 100 to 300 nM.
Take `C=C(C)c1cnc2c(Oc3ccc(NC(=O)c4nnc(C)c(-c5ccc(F)cc5)c4OCC)cc3F)ccnc2c1` [Compound 476, 4-ethoxy-5-(4-fluorophenyl)-N-[3-fluoro-4-[(7-prop-1-en-2-yl-1,5-naphthyridin-4-yl)oxy]phenyl]-6-methylpyridazine-3-carboxamide]: the IC50 in assay [1] (setting [5]), in assay [2] (setting [6]), in assay [3] (setting [7]) and in assay [4] (setting [8]) was under 100 nM each time.
